Reference: patent US10202389B2, “Pyrazolopyrimidinyl inhibitors of ubiquitin-activating enzyme” (Millennium Pharmaceuticals, Inc., priority 2012, dated 2019)

Biological target: recombinant human UAE (Homo sapiens (Human), UniProt P22314)
Test: Ubiquitin Activating Enzyme (UAE) HTRF Assay
Conditions: read-out: % inhibition @0.111 μM
Description: After incubation for 120 minutes, quantification of the FRET is performed on the Pherostar (BMG).
For compounds whose values are marked with an asterisk (*), mouse UAE was used. For all other compounds, human UAE was used.

Sequence of recombinant human UAE (P22314 whole entry): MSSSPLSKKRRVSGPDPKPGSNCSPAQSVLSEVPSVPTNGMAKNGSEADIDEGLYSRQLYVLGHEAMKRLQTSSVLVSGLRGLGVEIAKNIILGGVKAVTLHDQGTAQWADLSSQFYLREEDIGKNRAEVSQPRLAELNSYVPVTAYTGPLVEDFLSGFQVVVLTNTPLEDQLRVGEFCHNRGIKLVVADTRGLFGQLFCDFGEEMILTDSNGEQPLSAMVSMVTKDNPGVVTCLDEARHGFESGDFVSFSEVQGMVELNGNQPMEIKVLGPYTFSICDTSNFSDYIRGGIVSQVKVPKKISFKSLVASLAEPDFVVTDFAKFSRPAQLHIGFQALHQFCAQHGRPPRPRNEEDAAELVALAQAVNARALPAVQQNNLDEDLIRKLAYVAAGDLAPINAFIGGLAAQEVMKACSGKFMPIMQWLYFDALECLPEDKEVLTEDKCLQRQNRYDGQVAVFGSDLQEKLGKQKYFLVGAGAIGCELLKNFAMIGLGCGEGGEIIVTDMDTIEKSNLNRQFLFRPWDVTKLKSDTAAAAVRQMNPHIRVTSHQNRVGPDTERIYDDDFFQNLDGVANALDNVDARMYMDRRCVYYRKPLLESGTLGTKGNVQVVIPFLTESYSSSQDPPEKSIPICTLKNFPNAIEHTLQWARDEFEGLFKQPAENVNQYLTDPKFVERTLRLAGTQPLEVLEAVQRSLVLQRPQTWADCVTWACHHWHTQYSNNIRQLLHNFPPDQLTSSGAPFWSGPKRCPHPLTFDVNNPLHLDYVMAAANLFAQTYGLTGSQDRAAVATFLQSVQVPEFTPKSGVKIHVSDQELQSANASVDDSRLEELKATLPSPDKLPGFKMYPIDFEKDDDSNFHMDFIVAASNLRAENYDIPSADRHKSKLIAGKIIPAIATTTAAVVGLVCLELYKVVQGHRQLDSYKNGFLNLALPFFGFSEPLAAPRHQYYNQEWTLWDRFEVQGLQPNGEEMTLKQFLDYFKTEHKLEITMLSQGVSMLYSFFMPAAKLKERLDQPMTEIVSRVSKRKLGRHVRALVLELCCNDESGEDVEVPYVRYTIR

| Compound | inhibition at 0.111 µM |
| --- | --- |
| NS(=O)(=O)OC[C@H]1C[C@@H](Nc2ccnc3cc(-c4cccc(Br)c4)nn23)[C@H](O)[C@@H]1O (relative stereo) [Compound I-028, (rac)-((1R,2R,3S,4R)-4-((2-(3-Bromophenyl)pyrazolo[1,5-a]pyrimidin-7-yl)amino)-2,3-dihydroxycyclopentyl)methyl rel-sulfamate] | 99% |
| NS(=O)(=O)OC[C@H]1C[C@@H](Nc2ccnc3cc(-c4ccc5ncccc5c4)nn23)[C@H](O)[C@@H]1O (relative stereo) [Compound I-034, (rac)-((1R,2R,3S,4R)-2,3-dihydroxy-4-(2-(quinolin-6-yl)pyrazolo[1,5-a]pyrimidin-7-ylamino)cyclopentyl)methyl rel-sulfamate] | 100% |
| NS(=O)(=O)OC[C@H]1C[C@@H](Nc2cc(Cl)nc3cc(-c4ccc(Br)cc4)nn23)[C@H](O)[C@@H]1O (relative stereo) [Compound I-008, (rac)-((1R,2R,3S,4R)-4-(2-(4-bromophenyl)-5-chloropyrazolo[1,5-a]pyrimidin-7-ylamino)-2,3-dihydroxycyclopentyl)methyl rel-sulfamate] | 28% |
| NS(=O)(=O)OC[C@H]1C[C@@H](Nc2ccnc3cc(-c4ccc(C(F)(F)F)s4)nn23)[C@H](O)[C@@H]1O (relative stereo) [Compound I-060, (rac)-((1R,2R,3S,4R)-2,3-Dihydroxy-4-((2-(5-(trifluoromethyl)thiophen-2-yl)pyrazolo[1,5-a]pyrimidin-7-yl)amino)cyclopentyl)methyl rel-sulfamate] | 89% |
| NS(=O)(=O)OC[C@H]1C[C@@H](Nc2ccnc3cc(-c4ccc(C(F)(F)F)c5cccnc45)nn23)[C@H](O)[C@@H]1O (relative stereo) [Compound I-033, (rac)-((1R,2R,3S,4R)-2,3-dihydroxy-4-(2-(5-(trifluoromethyl)quinolin-8-yl)pyrazolo[1,5-a]pyrimidin-7-ylamino)cyclopentyl)methyl rel-sulfamate] | 98% |
| NS(=O)(=O)OC[C@H]1C[C@@H](Nc2ccnc3cc(-c4cccc5cc(C(F)F)ccc45)nn23)[C@H](O)[C@@H]1O [Compound I-111, (s.e.)-((1R,2R,3S,4R)-4-(2-(6-(difluoromethyl)naphthalen-1-yl)pyrazolo[1,5-a]pyrimidin-7-ylamino)-2,3-dihydroxycyclopentyl)methyl sulfamate] | 100% |
| NS(=O)(=O)OC[C@H]1C[C@@H](Nc2ccnc3cc(-c4ccc5[nH]c6ccccc6c5c4)nn23)[C@H](O)[C@@H]1O (relative stereo) [Compound I-037, (rac)-[(1R,2R,3S,4R)-4-{[2-(9H-carbazol-3-yl)pyrazolo[1,5-a]pyrimidin-7-yl]amino}-2,3-dihydroxycyclopentyl]methyl rel-sulfamate] | 100% |
| NS(=O)(=O)OC[C@H]1C[C@@H](Nc2ccnc3cc(-c4cccc(-c5ccccc5)c4)nn23)[C@H](O)[C@@H]1O (relative stereo) [Compound I-003, (rac)((1R,2R,3S,4R)-4-(2-(biphenyl-3-yl)pyrazolo[1,5-a]pyrimidin-7-ylamino)-2,3-dihydroxycyclopentyl)methyl rel-sulfamate] | 100% |
| NS(=O)(=O)OC[C@H]1C[C@@H](Nc2ccnc3cc(-c4cccc(C(F)(F)F)n4)nn23)[C@H](O)[C@@H]1O (relative stereo) [Compound I-064, (rac)-((1R,2R,3S,4R)-2,3-dihydroxy-4-(2-(6-(trifluoromethyl)pyridin-2-yl)pyrazolo[1,5-a]pyrimidin-7-ylamino)cyclopentyl)methyl rel-sulfamate] | 96% |
| NS(=O)(=O)OC[C@H]1C[C@@H](Nc2ccnc3cc(-c4cccc(C(=O)c5ccccc5)c4)nn23)[C@H](O)[C@@H]1O (relative stereo) [Compound I-073, (rac)-((1R,2R,3S,4R)-4-(2-(3-benzoylphenyl)pyrazolo[1,5-a]pyrimidin-7-ylamino)-2,3-dihydroxycyclopentyl)methyl rel-sulfamate] | 91% |
| CCCOC(C)(C)c1cccc(-c2cc3nccc(N[C@@H]4C[C@H](COS(N)(=O)=O)[C@@H](O)[C@H]4O)n3n2)c1 (relative stereo) [Compound I-090, (rac)-((1R,2R,3S,4R)-2,3-dihydroxy-4-(2-(3-(2-propoxypropan-2-yl)phenyl)pyrazolo[1,5-a]pyrimidin-7-ylamino)cyclopentyl)methyl rel-sulfamate] | 100% |
| COC(C)(C)c1cccc(-c2cc3nccc(N[C@@H]4C[C@H](COS(N)(=O)=O)[C@@H](O)[C@H]4O)n3n2)c1 (relative stereo) [Compound I-082, (rac)-((1R,2R,3S,4R)-2,3-dihydroxy-4-(2-(3-(2-methoxypropan-2-yl)phenyl)pyrazolo[1,5-a]pyrimidin-7-ylamino)cyclopentyl)methyl rel-sulfamate] | 100% |
| COC(=O)c1ccc2c(-c3cc4nccc(N[C@@H]5C[C@H](COS(N)(=O)=O)[C@@H](O)[C@H]5O)n4n3)cccc2c1 (relative stereo) [Compound I-096, (rac)-methyl rel-5-[7-({(1R,2S,3R,4R)-2,3-dihydroxy-4-[(sulfamoyloxy)methyl]cyclopentyl}amino)pyrazolo[1,5-a]pyrimidin-2-yl]-2-naphthoate] | 100% |
| NS(=O)(=O)OC[C@H]1C[C@@H](Nc2ccnc3cc(-c4cncc(-c5ccccc5)n4)nn23)[C@H](O)[C@@H]1O (relative stereo) [Compound I-121, (rac)-((1R,2R,3S,4R)-2,3-dihydroxy-4-{[2-(6-phenylpyrazin-2-yl)pyrazolo[1,5-a]pyrimidin-7-yl]aminolcyclopentyl)methylrel-sulfamate] | 100% |
| NS(=O)(=O)OC[C@H]1C[C@@H](Nc2ccnc3cc(-c4coc5ccc(Cl)cc45)nn23)[C@H](O)[C@@H]1O (relative stereo) [Compound I-092, (rac)-((1R,2R,3S,4R)-4-(2-(5-chlorobenzofuran-3-yl)pyrazolo[1,5-a]pyrimidin-7-ylamino)-2,3-dihydroxycyclopentyl)methyl rel-sulfamate] | 100% |
| NS(=O)(=O)OC[C@H]1C[C@@H](Nc2ccnc3cc(-c4csc5ccc(Cl)cc45)nn23)[C@H](O)[C@@H]1O (relative stereo) [Compound I-071, (rac)-((1R,2R,3S,4R)-4-(2-(5-chlorobenzo[b]thiophen-3-yl)pyrazolo[1,5-a]pyrimidin-7-ylamino)-2,3-dihydroxycyclopentyl)methyl rel-sulfamate] | 100% |
| COc1ccc(Cl)cc1-c1cc2nccc(N[C@@H]3C[C@H](COS(N)(=O)=O)[C@@H](O)[C@H]3O)n2n1 (relative stereo) [Compound I-020, (rac)-((1R,2R,3S,4R)-4-(2-(5-chloro-2-methoxyphenyl)pyrazolo[1,5-a]pyrimidin-7-ylamino)-2,3-dihydroxycyclopentyl)methyl rel-sulfamate] | 100% |
| CC1(C)CCc2ccc(-c3cc4nccc(N[C@@H]5C[C@H](COS(N)(=O)=O)[C@@H](O)[C@H]5O)n4n3)cc21 (relative stereo) [Compound I-041, (rac)-((1R,2R,3S,4R)-4-(2-(3,3-dimethyl-2,3-dihydro-1H-inden-5-yl)pyrazolo[1,5-a]pyrimidin-7-ylamino)-2,3-dihydroxycyclopentyl)methyl rel-sulfamate] | 99% |
| NS(=O)(=O)OC[C@H]1C[C@@H](Nc2ccnc3cc(-c4c[nH]c5ccc(Cl)cc45)nn23)[C@H](O)[C@@H]1O (relative stereo) [Compound I-054, (rac)-[(1R,2R,3S,4R)-4-{[2-(5-chloro-1H-indol-3-yl)pyrazolo[1,5-a]pyrimidin-7-yl]amino}-2,3-dihydroxycyclopentyl]methyl rel-sulfamate] | 100% |
| NS(=O)(=O)OC[C@H]1C[C@@H](Nc2ccnc3cc(-c4cccc(OC(F)(F)F)c4)nn23)[C@H](O)[C@@H]1O (relative stereo) [Compound I-040, (rac)-((1R,2R,3S,4R)-2,3-Dihydroxy-4-((2-(3-(trifluoromethoxy)phenyl)pyrazolo[1,5-a]pyrimidin-7-yl)amino)cyclopentyl)methyl rel-sulfamate] | 100% |
| CC1(C)COc2c(-c3cc4nccc(N[C@@H]5C[C@H](COS(N)(=O)=O)[C@@H](O)[C@H]5O)n4n3)cccc21 (relative stereo) [Compound I-023, (rac)-((1R,2R,3S,4R)-4-(2-(3,3-dimethyl-2,3-dihydrobenzofuran-7-yl)pyrazolo[1,5-a]pyrimidin-7-ylamino)-2,3-dihydroxycyclopentyl)methyl rel-sulfamate] | 96% |
| CC1(C)OCc2ccc(-c3cc4nccc(N[C@@H]5C[C@H](COS(N)(=O)=O)[C@@H](O)[C@H]5O)n4n3)cc21 (relative stereo) [Compound I-053, (rac)-((1R,2R,3S,4R)-4-(2-(3,3-dimethyl-1,3-dihydroisobenzofuran-5-yl)pyrazolo[1,5-a]pyrimidin-7-ylamino)-2,3-dihydroxycyclopentyl)methyl rel-sulfamate] | 100% |
| CC(C)Oc1ccc2ccccc2c1-c1cc2nccc(N[C@@H]3C[C@H](COS(N)(=O)=O)[C@@H](O)[C@H]3O)n2n1 [Compound I-109, (s.e.)-((1R,2R,3S,4R)-2,3-dihydroxy-4-(2-(2-isopropoxynaphthalen-1-yl)pyrazolo[1,5-a]pyrimidin-7-ylamino)cyclopentyl)methyl sulfamate] | 100% |
| NS(=O)(=O)OC[C@H]1C[C@@H](Nc2ccnc3cc(-c4ccccc4Oc4ccccc4)nn23)[C@H](O)[C@@H]1O (relative stereo) [Compound I-068, (rac)-((1R,2R,3S,4R)-2,3-dihydroxy-4-(2-(2-phenoxyphenyl)pyrazolo[1,5-a]pyrimidin-7-ylamino)cyclopentyl)methyl rel-sulfamate] | 95% |
| Cc1sc(-c2ccccc2)nc1-c1cc2nccc(N[C@@H]3C[C@H](COS(N)(=O)=O)[C@@H](O)[C@H]3O)n2n1 (relative stereo) [Compound I-038, (rac)-[(1R,2R,3S,4R)-2,3-dihydroxy-4-{[2-(5-methyl-2-phenyl-1,3-thiazol-4-yl)pyrazolo[1,5-a]pyrimidin-7-yl]amino}cyclopentyl]methyl rel-sulfamate] | 100% |
